PMC10778758, “Dithioethanol (DTE)-Conjugated Deoxyribose Cyclic Dinucleotide Prodrugs (DTE-dCDNs) as STING Agonist” (International Journal of Molecular Sciences, 2023)

How the values were obtained:
THP1-Lucia cells [1] = test: Luciferase activity in THP1-Lucia cells pretreated with STING or TBK1 inhibitor; assay type: cell-based; conditions: inhibitor 10 μM pretreated 1 h, prodrug 9 10 μM, 24 h
Method: The endogenous 2′,3′-cGAMP was set as the positive control group. H-151 [26] and BX795 [27] were selected to use as the STING inhibitor and TBK1 inhibitor, respectively.
Figure 6 Prodrug 9 activated the IFN-β promoter responsive luciferase expression through STING signaling pathway. Prodrug 9 (10 μM) and 2′,3′-cGAMP (10 μM) were added to THP1-Lucia cells alone or pretreated with vehicle or H-151 (10 μM), BX795 (10 μM) for 1 h, respectively. The luciferase activity was measured with Quanti-Luc reagent via a 24 h incubation at 37 °C. Data are presented as mean ± SD, n = 3.

[2] = In vitro serum stability assay in 20% fetal bovine serum; assay type: in vitro ADME; conditions: 100 μM, 20% FBS, 37 °C
Method: In vitro serum stability assay. Each compound (100 μM) was incubated at 37 °C in the reaction buffer including 20% fetal bovine serum (FBS, GIBCO, Thermo Fisher Scientific, Waltham, MA, USA), 10 mM PBS (pH 7.4), and 1 mM MgCl2. At various times, aliquots of the reaction mixture were collected and stopped by adding 50 μL MeCN and diluted with 50 μL water. The reaction mixture was then centrifuged at 10,000 rpm for 5 min, leaving 100 μL supernatant for the HPLC assay. An amount of 10 μL of each aliquot was injected directly into HPLC (Agilent 1260 Infinity HPLC equipped with a UV detector; column Agilent ZORABX SB-C18 5 μm [4.6 × 150 mm; detection at 254 nm; column temperature 25 °C] for analysis. Amounts of 10 mM TEAA buffer (solvent A) and MeCN (solvent B) were used as the mobile phase with a flow rate of 1 mL/min. The gradient was set as the following: 0–2 min: 98% A/2% B; 2–6 min: 98% A/2% B to 100% B; 6–10 min: 100% B; 10–13 min: 100% B to 98% A/2% B; 13–15 min: 98% A/2% B. The % remaining of the test compounds after incubation in the serum was then calculated.
Figure 4 Parent dCDN of DTE-dCDN prodrug 9 retained a high serum stability. The serum stability analysis of (a) prodrug 9, (b) 3′,3′-c-di-dAMP, (c) 2′,3′-cGAMP and (d) ADU-S100 were determined in 20% FBS. Each compound (100 μM) was incubated in 20% FBS at 37 °C. At various times (0, 2, 4, 8, 12, 24, 48, 72 h), aliquots of the reaction mixture were analyzed with HPLC at 254 nm. The % remaining of test compounds after incubation in serum was calculated.

CT-26 cells = test: RT-qPCR of IFN-β mRNA in CT-26 cells; assay type: cell-based; conditions: CT-26, prodrug 9 and ADU-S100 10 μM, CDNs 100 μM, 4 h
Method: Real-time quantitative PCR (RT-qPCR). The mRNA expression levels of diverse cytokines were measured using quantitative RT-PCR (RT-qPCR) assays. THP-1 cells or CT26 cells were incubated with the compounds for 4 h, subsequently harvested for RNA isolation according to the manufacturer’s instructions of RNApure Tissue&Cell Kit (DNase I) (CWBIO, Cambridge, MA, USA catalogue no. CW0560S). Next, 1 μg RNA was reversely transcribed to cDNA by TransScript All-in-One First-Strand cDNA Synthesis SuperMix for qPCR (One-Step gDNA Removal) (TransGen, Beijing, China). To examine the mRNA levels, real-time PCR was performed in a CFX96 Real-Time PCR system (Bio-RAD, Hercules, CA, USA) using PerfectStart Green qPCR Super Mix (TransGen) and primers (Sangon Biotech, Shanghai, China). The expression level was calculated according to the formula (2^−∆∆Ct) using the GAPDH or β-actin as the internal reference gene and the relative gene expression fold was normalized to the DMSO-treated cells. The THP-1 and CT26 cell lines were obtained from American Type Culture Collection (ATCC, Manassas, VA, USA). […]
expression levels of IFN-β were assessed by real-time quantitative PCR (qPCR) under the treatment of prodrug 9 (10 μM), 3′,3′-c-di-dAMP (100 μM), 2′,3′-cGAMP (100 μM) and ADU-S100 (10 μM) for 4 h.
Figure S3. […]
levels of IFN-β were assessed by an enzyme-linked immunosorbent assay (ELISA). […]

THP1-Lucia cells [3] = test: THP1-Lucia cell-based luciferase reporter assay; conditions: 24 h
Method: THP1-Lucia cell-based reporter assay. THP1-Lucia cells were seeded into a 24-well plate at a density of 5 × 10^4 cells/well. […] Finally, the medium was collected to determine the luciferase activity using QUANTI-Luc (InvivoGen, San Diego, CA, USA) according to the manufacturer′s instruction to calculate the EC50 values of the tested compounds. The results are expressed as the mean ± SD from three independent experiments. Emax values were normalized to the response induced by 2′,3′-cGAMP in each assay and expressed as a mean percentage ± SD from three independent experiments. The THP1-Lucia cell line was obtained from Prof. Junmin Quan from Peking University (Beijing, China).
Figure 5 The luciferase-based assay in the THP1-Lucia reporter cell line. (a) EC50 values represent the mean (±SD) of three independent experiments. (b) Emax values represent the mean (±SD) of three independent experiments.

THP-1 cells = test: Uptake of DTE-dCDN prodrug, intracellular levels by LC/MS/MS; conditions: THP-1 cells treated with 100 μM 3′,3′-c-di-dAMP, within 6 h
Method: Uptake of DTE-dCDN Prodrug. THP-1 cells were seeded at a concentration of 5 × 10^6 cells/mL into a 12-well plate. After 16 h of incubation at 37 °C in a 5% CO2 atmosphere, the compounds were added to cell cultures and the cells were collected at time points of 1 h, 2 h, 4 h, 6 h, 8 h, 12 h, and 24 h by centrifugation for 1 min at 1000× g. The media was removed completely, and the cells were washed twice with 800 μL of ice-cold PBS before being lysed with 400 μL ice-cold 70% methanol. Lysates were incubated overnight at −20 °C and then centrifuged for 20 min at 13,000× g to remove cellular debris. The supernatant was analyzed via LC/MS/MS (Agilent 1290 Infinity II/6470A)
(a) The intracellular concentration of the prodrug 9 in THP-1 cells. (b) The intracellular concentration of the parent dCDN (3′,3′-c-di-dAMP) in THP-1 cells. THP-1 cells were treated with 10 μM prodrug 9 or 100 μM parent dCDN (3′,3′-c-di-dAMP) for the indicated period of time (1, 2, 4, 6, 8, 12, 24 h), and the intracellular concentration of the metabolites in cellular extracts was determined with liquid chromatograph MS/MS analysis.

Row | Compound | effect on induction of luciferase expression by prodrug 9 (THP1-Lucia cells [1]) | T1/2 (half-life period) [2] [h] | degraded at 72 h [2] | further results
1 | O=C(NCCCNc1nc(Nc2cccc(NC(=O)N3CCCC3)c2)ncc1I)c1cccs1 [BX795] | could block the induction of the luciferase expression | – | – | –
2 | CCc1ccc(NC(=O)Nc2c[nH]c3ccccc23)cc1 [H-151] | could block the induction of the luciferase expression | – | – | –
3 | Nc1ncnc2c1ncn2[C@@H]1O[C@@H]2COP(=O)([S-])O[C@@H]3[C@H](O)[C@@H](COP([O-])(=S)O[C@H]2[C@H]1O)O[C@H]3n1cnc2c(N)ncnc21.[Na+].[Na+] (stereo partly shown) [ADU-S100, reference compound] | – | 67 | – | induction of IFN-β transcription in CT-26 cells (CT-26 cells): no significant induction
4 | Nc1ncnc2c1ncn2[C@H]1C[C@@H]2OP(=O)(O)OC[C@H]3O[C@@H](n4cnc5c(N)ncnc54)C[C@@H]3OP(=O)(O)OC[C@H]2O1 [3′,3′-c-di-dAMP] | – | > 72 | did not show any degradation | EC50 (THP1-Lucia cells [3]): 41.3 µM; intracellular levels of the parent dCDN 3′,3′-c-di-dAMP (THP-1 cells): not detectable
5 | Nc1nc2c(ncn2[C@@H]2O[C@@H]3COP(=O)(O)O[C@H]4[C@@H](O)[C@H](n5cnc6c(N)ncnc65)O[C@@H]4COP(=O)(O)O[C@@H]2[C@@H]3O)c(=O)[nH]1 [2′,3′-cGAMP] | – | 31 | 80% | –
